This note sets out measurements from patent US8362000B2, “Azetidinyl diamides as monoacylglycerol lipase inhibitors” (Janssen Pharmaceutica NV, priority 2009, dated 2013).

One experiment addresses T1, MGL (Rattus norvegicus, UniProt Q8R431).
T1 construct: one g rat brain was homogenized using a Polytron homogenizer; from tissue; host or cells: rat brain homogenate
T1 sequence (Q8R431 1-303): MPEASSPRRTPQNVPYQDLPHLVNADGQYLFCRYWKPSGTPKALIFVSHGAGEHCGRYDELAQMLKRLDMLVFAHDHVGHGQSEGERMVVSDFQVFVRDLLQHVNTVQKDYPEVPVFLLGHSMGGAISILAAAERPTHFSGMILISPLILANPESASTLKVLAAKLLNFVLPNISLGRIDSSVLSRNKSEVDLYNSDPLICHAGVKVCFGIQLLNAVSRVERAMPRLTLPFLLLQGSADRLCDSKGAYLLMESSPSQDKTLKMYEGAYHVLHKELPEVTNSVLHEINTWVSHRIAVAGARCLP
In words: 2-AG accumulation assay in rat brain homogenate. The class given is biochemical. The conditions noted are these: rat brain homogenate, 2-AG accumulation as percent of vehicle; for 2-AG accumulation, % of vehicle control at 10 µM: compound 10 μM, read-out: Rat Brain 2AG % VehCntrl (%) @ 10 μM.

In a further experiment the target is T2, mutant MGL (Homo sapiens, UniProt Q99685, L169S/L176S).
T2 sequence (Q99685 1-303 L169S/L176S): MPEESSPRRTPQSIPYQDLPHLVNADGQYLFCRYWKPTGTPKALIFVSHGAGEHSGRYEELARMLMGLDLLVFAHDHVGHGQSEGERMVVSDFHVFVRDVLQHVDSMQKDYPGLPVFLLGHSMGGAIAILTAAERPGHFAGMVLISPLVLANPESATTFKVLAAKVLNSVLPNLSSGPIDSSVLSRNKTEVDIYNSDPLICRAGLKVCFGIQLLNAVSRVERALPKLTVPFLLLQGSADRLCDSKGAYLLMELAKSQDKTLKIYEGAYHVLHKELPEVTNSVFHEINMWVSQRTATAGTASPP
Nature of the experiment: MGL ThermoFluor assay - mutant. The class given is binding. Conditions: for Kd: read-out: MGL mutant ThermoFluor qKd (μM) (using qNMR conc.). On the technique in general: Differential scanning fluorimetry follows unfolding on heating by fluorescence.

Experiment [1] concerns the target T3, purified wild type MGL (wt-MGLL 6H-11-313) (Homo sapiens, UniProt Q99685).
T3 sequence (Q99685 1-303): T2 sequence (Q99685 1-303 L169S/L176S) with S169L, S176L

Setting [2] is: compound concentration measured by qNMR, read-out: MGL mutant ThermoFluor qKd (using qNMR conc.).
Setting [3] is: ThermoFluor thermal stability binding assay, read-out: MGL mutant ThermoFluor Kd.
Setting [4] is: ThermoFluor concentration-response, read-out: MGL mutant ThermoFluor Kd.
Where [5] appears, read: ThermoFluor, compound concentration measured by qNMR.
The mark [6] stands for this setting: ThermoFluor, compound concentration measured by qNMR, read-out: MGL mutant ThermoFluor qKd (using qNMR conc.).

Substitutions are numbered along the chain they refer to. pIC50, pKd: −log10 of the molar value. Read-outs that look alike come from different tables or passages of the source.

For `COc1cc(F)c(F)cc1-c1ccc(C(=O)N2CC(N3CCN(C(=O)c4nccs4)CC3)C2)cc1` [Cpd 214, 1-{1-[(4′,5′-Difluoro-2′-methoxybiphenyl-4-yl)carbonyl]azetidin-3-yl}-4-(1,3-thiazol-2-ylcarbonyl)piperazine], the 2-AG accumulation, % of vehicle control at 10 µM on MGL amounted to 769%.

As to `O=C(c1ccc(SCc2cccc(C(F)(F)F)c2)cc1)N1CC(N2CCN(C(=O)c3nccs3)CC2)C1` [Cpd 973], the 2-AG accumulation, % of vehicle control at 1 µM at MGL (compound 1 μM, read-out: Rat Brain 2AG % VehCntrl (%) @ 1 μM) was determined as 806%.

Consider `CC(C)(C)OC(=O)N1CC[C@H](Oc2ccc(C(=O)N3CC(N4CCN(C(=O)c5ccccc5)CC4)C3)cc2)C1` [Cpd 434, tert-Butyl (3S)-3-[4-({3-[4-(phenylcarbonyl)piperazin-1-yl]azetidin-1-yl}carbonyl)phenoxy]pyrrolidine-1-carboxylate], for which, on MGL, the 2-AG accumulation, % of vehicle control at 10 µM amounted to 737%.

In the case of `O=C(CCc1c(Cl)cccc1Cl)N1CC(N2CCN(C(=O)c3nccs3)CC2)C1` [Cpd 274, 1-{1-[3-(2,6-Dichlorophenyl)propanoyl]azetidin-3-yl}-4-(1,3-thiazol-2-ylcarbonyl)piperazine], on MGL, the 2-AG accumulation, % of vehicle control at 10 µM came to 876%.

Consider `O=C(c1ccc(Oc2ccc(Br)cn2)cc1)N1CC(N2CCN(C(=O)C(F)(F)F)CC2)C1` [Cpd 872], for which, on mutant MGL (setting [2]), the pKd is 5.00. The pIC50 (usually the IC50 on a negative log10 scale, so that one unit is a factor of ten) in experiment [1] was 4.86.

As for `O=C(c1nc2cc(F)ccc2[nH]1)N1CC(N2CCN(C(=O)c3nccs3)CC2)C1` [Cpd 1443], on mutant MGL (setting [3]), the pKd was below 4.51. The pIC50 in experiment [1] was below 4.78.

For `O=C(c1ccc2c(c1)[nH]c(=O)n2-c1ccccc1)N1CC(N2CCN(C(=O)c3cscn3)CC2)C1` [Cpd 939], the pKd at mutant MGL (setting [4]) was 6.52. This compound also showed a pIC50 in experiment [1] of 5.63.

As for `Cc1c(C(=O)N2CC(N3CCN(C(=O)c4nccs4)CC3)C2)oc2ccc(F)cc12` [Cpd 751], the pKd at mutant MGL (setting [4]) was 5.88. In experiment [1], the pIC50 is 6.40.

Consider `COc1cncc(-c2ccc3[nH]c(C(=O)N4CC(N5CCN(C(=O)c6nccs6)CC5)C4)c(C)c3c2)c1` [Cpd 1175], for which the Kd at mutant MGL (setting [5]) stood at 0.01 µM. The compound also showed a negative-log IC50 (pIC50) in experiment [1] of 7.18.

As for `CN(c1ccccc1)S(=O)(=O)c1ccc(C(=O)N2CC(N3CCN(C(=O)c4nccs4)CC3)C2)cc1` [Cpd 946], at mutant MGL (setting [6]), the pKd is 5.77. In experiment [1], this compound showed a pIC50 of 6.00.

As for `O=C(c1ccc(Sc2cccc(C(F)(F)F)c2)cc1)N1CC(N2CCN(C(=O)C(F)(F)F)CC2)C1` [Cpd 790], the pKd on mutant MGL (setting [2]) is 5.60. The pIC50 in experiment [1] was 5.85.

Consider `Cc1nc2cc(C(=O)N3CCN(C4CN(C(=O)c5nccs5)C4)CC3)ccc2n1C1CCCCC1` [Cpd 793], for which the pKd at mutant MGL (setting [4]) is 6.70. The same compound gave a pIC50 in experiment [1] of 5.84.

For the compound `O=C(c1nccs1)N1CC(N2CCN(C(=O)c3cc4cc(C(F)(F)F)ccc4s3)C(c3ccccc3)C2)C1` (stereo not shown) [Cpd 804], the pKd on mutant MGL (setting [4]) was 6.98. In addition, the pIC50 in experiment [1] was 5.70.

Regarding `O=C(c1ccccc1)N1CCN(C2CN(C(=O)c3ccc4c(ccn4-c4ccc(F)cn4)c3)C2)CC1` [Cpd 596, 1-(5-Fluoropyridin-2-yl)-5-({3-[4-(phenylcarbonyl)piperazin-1-yl]azetidin-1-yl}carbonyl)-1H-indole], the pKd on mutant MGL (setting [6]) was 6.20. In experiment [1], this compound gave a pIC50 of 6.27.

As for `O=C(c1ccc(-n2cc(-c3cc(F)cc(F)c3)cn2)cc1)N1CC(N2CCN(C(=O)c3nccs3)CC2)C1` [Cpd 1123], the pKd at mutant MGL (setting [6]) was 5.87. The compound also had a pIC50 in experiment [1] of 7.72.

Consider `Cc1c(C(=O)N2CC(N3CCN(C(=O)c4ccccc4)CC3)C2)oc2ccc(F)cc12` [Cpd 1490], for which, on mutant MGL (setting [3]), the pKd is below 4.51. Moreover, the pIC50 in experiment [1] was below 4.78.

On to `O=C(c1ccc(Oc2ccccn2)c(Cl)c1)N1CC(N2CCN(C(=O)c3nccs3)CC2)C1` [Cpd 752], for which the pKd on mutant MGL (setting [4]) is 7.02. Further, the pIC50 in experiment [1] was 6.38.

Consider `O=C(c1ccc(-c2cccc(C(F)(F)F)c2)cc1)N1CCN(C2CN(C(=O)c3cocn3)C2)CC1` [Cpd 1258], for which the pKd on mutant MGL (setting [3]) was 7.70. This compound had a pIC50 in experiment [1] of 6.08.

`O=C(c1ccc(Oc2ccc(Cl)cn2)cc1)N1CC(N2CCN(C(=O)c3cscn3)CC2)C1` [Cpd 757]: on mutant MGL (setting [4]), the pKd was 6.11. Moreover, the pIC50 in experiment [1] was 6.28.

As to `O=C(c1ccc2c(cnn2Cc2cccc(C(F)(F)F)c2)c1)N1CC(N2CCN(C(=O)c3nccs3)CC2)C1` [Cpd 1038, 5-({3-[4-(1,3-Thiazol-2-ylcarbonyl)piperazin-1-yl]azetidin-1-yl}carbonyl)-1-[3-(trifluoromethyl)benzyl]-1H-indazole], the pKd at mutant MGL (setting [2]) is 8.70. The pIC50 in experiment [1] was above 8.30.

In the case of `Cc1nc2cc(C(=O)N3CC(N4CCN(C(=O)c5cscn5)CC4)C3)ccc2n1-c1ccc(C(F)(F)F)cc1` [Cpd 1289], the pKd on mutant MGL (setting [2]) was 6.89. This compound showed a pIC50 in experiment [1] of 5.58.

As to `O=C(c1ccccc1)N1CCN(C2CN(C(=O)c3ccc4c(ccn4-c4ccc(C(F)(F)F)cn4)c3)C2)CC1` [Cpd 586, 5-({3-[4-(Phenylcarbonyl)piperazin-1-yl]azetidin-1-yl}carbonyl)-1-[5-(trifluoromethyl)pyridin-2-yl]-1H-indole], the pKd at mutant MGL (setting [6]) was 7.07. The compound further showed a pIC50 in experiment [1] of 6.95.

Turning to `O=C(c1cscn1)N1CCN(C2CN(C(=O)c3cccc(-c4ccccc4)c3F)C2)CC1` [Cpd 1240], on mutant MGL (setting [4]), the pKd is 5.60. In experiment [1], this compound had a pIC50 of 6.34.

With `CC(C)(C)c1cc(C(=O)N2CC(N3CCN(C(=O)c4nccs4)CC3)C2)cc(C(C)(C)C)c1` [Cpd 776], the pKd on mutant MGL (setting [4]) was 6.59. Further, in experiment [1], the pIC50 is 6.04.

Take `O=C(c1ccc2[nH]c(-c3ccccc3)nc2c1)N1CC(N2CCN(C(=O)c3nccs3)CC2)C1` [Cpd 1194]: the pKd on mutant MGL (setting [4]) is 7.00. In experiment [1], this compound showed a negative logarithm of the IC50 (pIC50) of 6.93.

For the compound `O=C(c1ccccc1)N1CCN(C2CN(C(=O)c3ccc(F)c(Cc4ccc(C(F)(F)F)cc4)c3)C2)CC1` [Cpd 563], the pKd on mutant MGL (setting [4]) is 5.68. This compound also gave a pIC50 in experiment [1] of 5.60.

On to `Cc1nc2cc(C(=O)N3CC(N4CCN(C(=O)c5nccs5)CC4)C3)ccc2n1-c1ccc(F)c(F)c1` [Cpd 1206], for which, at mutant MGL (setting [2]), the pKd is 7.74. This compound showed a pIC50 in experiment [1] of 6.77.

Turning to `Cc1nn(-c2ccc(Cl)c(Cl)c2)c(C)c1C(=O)N1CC(N2CCN(C(=O)c3nccs3)CC2)C1` [Cpd 1225], the pKd on mutant MGL (setting [4]) was 7.38. The compound further showed a pIC50 in experiment [1] of 6.56.

As to `O=C(c1cc2ccc(C(F)(F)F)cc2[nH]1)N1CC(N2CCN(C(=O)c3ccns3)CC2)C1` [Cpd 1445], the pKd at mutant MGL (setting [3]) is below 4.51. The pIC50 in experiment [1] is below 4.78.

`O=C(c1ccc2c(c1)[nH]c(=O)n2-c1ccc(F)c(F)c1)N1CC(N2CCN(C(=O)c3nccs3)CC2)C1` [Cpd 935]: on mutant MGL (setting [4]), the pKd was 7.47. Further, in experiment [1], the pIC50 is 7.00.

Take `CCNC(=O)COc1ccc(C(=O)N2CC(N3CCN(C(=O)c4nccs4)CC3)C2)cc1` [Cpd 816]: the pKd on mutant MGL (setting [6]) is 5.55. In experiment [1], the pIC50 was 5.58.

On to `O=C(c1ccc2c(ccn2-c2ccc(C(F)(F)F)cn2)c1)N1CC(N2CCN(C(=O)c3nccs3)CC2)C1` [Cpd 1314, 5-({3-[4-(1,3-Thiazol-2-ylcarbonyl)piperazin-1-yl]azetidin-1-yl}carbonyl)-1-[5-(trifluoromethyl)pyridin-2-yl]-1H-indole], for which the pKd on mutant MGL (setting [6]) is 9.00. This compound also showed a pIC50 in experiment [1] above 8.30.

For `O=C(c1ccccc1)N1CCN(C2CN(C(=O)c3cc4cc(Cl)ccc4o3)C2)CC1` [Cpd 1491], at mutant MGL (setting [3]), the pKd is 4.90. The compound also had a pIC50 in experiment [1] below 4.78.

For the compound `O=C(c1ccccc1)N1CCN(C2CN(C(=O)c3ccc4nc(-c5cccc(F)c5)sc4c3)C2)CC1` [Cpd 599], on mutant MGL (setting [3]), the pKd is 6.32. This compound showed a pIC50 in experiment [1] of 5.99.

Turning to `Cc1nc2cc(C(=O)N3CC(N4CCN(C(=O)c5nccs5)CC4)C3)ccc2n1-c1ccc(C(F)(F)F)cc1` [Cpd 1215], at mutant MGL (setting [2]), the pKd is 8.22. For the same compound, the pIC50 in experiment [1] was 6.67.

`O=C(c1cc2cc(-c3ccccc3)cnc2o1)N1CC(N2CCN(C(=O)c3nccs3)CC2)C1` [Cpd 1209]: at mutant MGL (setting [5]), the Kd is 0.942 µM. Moreover, the pIC50 in experiment [1] was 6.71.

With `O=C(c1ccc(N2CCOCC2)cc1)N1CC(N2CCN(C(=O)c3nccs3)CC2)C1` [Cpd 815], the pKd at mutant MGL (setting [4]) was 6.60. In experiment [1], this compound showed a pIC50 of 5.60.
